Data taken from US20230144824A1, “1H-PYRAZOLO[4,3-d]PYRIMIDINE COMPOUNDS AS TOLL-LIKE RECEPTOR 7 (TLR7) AGONISTS” (BRISTOL-MYERS SQUIBB COMPANY, priority 2020, published 2023).

Target: T1, human TLR7 (Homo sapiens, UniProt Q9NYK1)
T1 construct: host or cells: HEK-Blue TLR7 cells (engineered human embryonic kidney cells)
T1 sequence (Q9NYK1 27-1049): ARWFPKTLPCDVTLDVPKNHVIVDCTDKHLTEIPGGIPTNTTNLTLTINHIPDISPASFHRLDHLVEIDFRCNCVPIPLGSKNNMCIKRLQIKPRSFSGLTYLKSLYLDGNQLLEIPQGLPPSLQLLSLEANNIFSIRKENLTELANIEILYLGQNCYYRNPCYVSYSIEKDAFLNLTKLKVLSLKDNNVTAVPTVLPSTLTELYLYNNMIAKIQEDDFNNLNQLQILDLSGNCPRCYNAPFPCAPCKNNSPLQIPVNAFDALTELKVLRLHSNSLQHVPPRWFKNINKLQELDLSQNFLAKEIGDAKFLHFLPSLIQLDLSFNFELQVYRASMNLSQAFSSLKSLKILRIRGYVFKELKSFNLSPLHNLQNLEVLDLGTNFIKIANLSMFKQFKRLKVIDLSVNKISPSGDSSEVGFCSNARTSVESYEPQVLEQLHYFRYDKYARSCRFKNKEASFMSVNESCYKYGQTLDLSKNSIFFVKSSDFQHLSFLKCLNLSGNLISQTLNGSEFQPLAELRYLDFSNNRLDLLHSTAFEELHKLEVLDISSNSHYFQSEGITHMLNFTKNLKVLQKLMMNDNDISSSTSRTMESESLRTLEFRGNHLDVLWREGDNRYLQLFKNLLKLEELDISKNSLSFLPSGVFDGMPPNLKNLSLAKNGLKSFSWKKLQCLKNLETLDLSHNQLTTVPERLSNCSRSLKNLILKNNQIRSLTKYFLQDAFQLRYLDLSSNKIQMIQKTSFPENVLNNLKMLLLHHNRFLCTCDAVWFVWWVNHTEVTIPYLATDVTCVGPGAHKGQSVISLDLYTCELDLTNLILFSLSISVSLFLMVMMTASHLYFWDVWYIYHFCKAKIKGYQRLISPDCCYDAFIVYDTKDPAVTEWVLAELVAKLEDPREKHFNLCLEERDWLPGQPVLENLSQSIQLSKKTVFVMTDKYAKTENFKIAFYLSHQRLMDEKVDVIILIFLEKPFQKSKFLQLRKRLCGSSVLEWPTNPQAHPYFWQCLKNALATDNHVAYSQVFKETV
Assay: Human TLR7 agonist activity assay (HEK-Blue TLR7 SEAP reporter)
Assay type: cell-based
Conditions: HEK-Blue TLR7 cells, 18 h treatment, average where assay performed multiple times, read-out: hTLR7 Agonism EC50
Method: This procedure describes a method for assaying human TLR7 (hTLR7) agonist activity of the compounds disclosed in this specification.
HEK-Blue™ TLR7 cells were added to each well of a 384-well tissue-culture plate (15,000 cells per well) and incubated 16-18 h at 37° C., 5% CO2. Compounds (100 nl) were dispensed into wells containing the HEK-Blue™ TLR cells and the treated cells were incubated at 37° C., 5% CO2. After 18 h treatment ten microliters of freshly-prepared Quanti-Blue™ reagent (Invivogen) was added to each well, incubated for 30 min (37° C., 5% CO2) and SEAP levels measured using an Envision plate reader (OD=620 nm). The half maximal effective concentration values (EC50; compound concentration which induced a response halfway between the assay baseline and maximum) were calculated.

Question: How did the EC50 turn out when `CCC[C@@H](CCO)Nc1nc(N)nc2cnn(Cc3ncc(C4CCCNC4)cc3OC)c12` (single isomer, unassigned) [Compound 201] was run?
Answer: Its EC50 is 256 nM.

Question: `CCC[C@@H](CCO)Nc1nc(N)nc2cnn(Cc3ncc(C4CCN(C5CCOC5)CC4)cc3OC)c12` (single isomer, unassigned) [Compound 211] was tested. Which EC50 did it give?
Answer: The EC50 was 123 nM.

Question: With `CCC[C@@H](CCO)Nc1nc(N)nc2cnn(Cc3ncc(C4CCN(C5CCOC5)CC4)cc3OC)c12` (single isomer, unassigned) [Compound 212] as the compound, how does the EC50 read?
Answer: The EC50 was 6.5 nM.

Question: Which EC50 does the source give for `CCCCNc1nc(N)nc2cnn(Cc3ncc(C4CCN(C(CC)CC)CC4)cc3OC)c12` [Compound 130, N7-butyl-1-({3-methoxy-5-[1-(pentan-3-yl)piperidin-4-yl]pyridin-2-yl}methyl)-1H-pyrazolo[4,3-d]pyrimidine-5,7-diamine] here?
Answer: The EC50 was 119 nM.

Question: With `COc1cc(C2CCN(CCN(C)C)CC2)cnc1Cn1ncc2nc(N)nc(NCc3cc(C)on3)c21` [Compound 145, 1-[(5-{1-[2-(dimethylamino)ethyl]piperidin-4-yl}-3-methoxypyridin-2-yl)methyl]-N7-[(5-methyl-1,2-oxazol-3-yl)methyl]-1H-pyrazolo[4,3-d]pyrimidine-5,7-diamine] as the compound, how does the EC50 read?
Answer: The EC50 was 101 nM.

Question: How did the EC50 turn out when `COc1cc(C2CCNCC2)cnc1Cn1ncc2nc(N)nc(NCC3CC4(CC4)C3)c21` [Compound 152, 1-{[3-methoxy-5-(piperidin-4-yl)pyridin-2-yl]methyl}-N7-({spiro[2.3]hexan-5-yl}methyl)-1H-pyrazolo[4,3-d]pyrimidine-5,7-diamine] was run?
Answer: Its EC50 is 111 nM.

Question: Which EC50 does the source give for `COc1cc(C2CCN(CCO)CC2)cnc1Cn1ncc2nc(N)nc(NCC3CC4(CC4)C3)c21` [Compound 153, 2-{4-[6-({5-amino-7-[({spiro[2.3]hexan-5-yl}methyl)amino]-1H-pyrazolo[4,3-d]pyrimidin-1-yl}methyl)-5-methoxypyridin-3-yl]piperidin-1-yl}ethan-1-ol] here?
Answer: The EC50 was 86.8 nM.

Question: `COc1cc(C2CCN(C(=O)CCN(C)C)CC2)cnc1Cn1ncc2nc(N)nc(NCC3CC4(CC4)C3)c21` [Compound 155, 1-{4-[6-({5-amino-7-[({spiro[2.3]hexan-5-yl}methyl)amino]-1H-pyrazolo[4,3-d]pyrimidin-1-yl}methyl)-5-methoxypyridin-3-yl]piperidin-1-yl}-3-(dimethylamino)propan-1-one] was tested. Which EC50 did it give?
Answer: The EC50 was 199 nM.

Question: `COc1cc(C2CCN(C(C)C)CC2)cnc1Cn1ncc2nc(N)nc(NCC3CC4(CC4)C3)c21` [Compound 156, 1-({3-methoxy-5-[1-(propan-2-yl)piperidin-4-yl]pyridin-2-yl}methyl)-N7-({spiro[2.3]hexan-5-yl}methyl)-1H-pyrazolo[4,3-d]pyrimidine-5,7-diamine] was tested. Which EC50 did it give?
Answer: Its EC50 is 40.9 nM.

Question: How did the EC50 turn out when `CCCCNc1nc(N)nc2cnn(Cc3ccc(C4CCNCC4)cc3OC)c12` [Compound 160, N7-butyl-1-{[2-methoxy-4-(piperidin-4-yl)phenyl]methyl}-1H-pyrazolo[4,3-d]pyrimidine-5,7-diamine] was run?
Answer: Its EC50 is 13 nM.

Question: `CCCCNc1nc(N)nc2cnn(Cc3ccc(C4CCN(C(=O)CC(C)(C)O)CC4)cc3OC)c12` [Compound 162, 1-[4-(4-{[5-amino-7-(butylamino)-1H-pyrazolo[4,3-d]pyrimidin-1-yl]methyl}-3-methoxyphenyl)piperidin-1-yl]-3-hydroxy-3-methylbutan-1-one] was tested. Which EC50 did it give?
Answer: The EC50 was 12.2 nM.

Question: For `COc1cc(C2CCN(C3CCOCC3)CC2)cnc1Cn1ncc2nc(N)nc(NCc3noc(C)n3)c21` [Compound 200, 1-({3-methoxy-5-[1-(oxan-4-yl)piperidin-4-yl]pyridin-2-yl}methyl)-N7-[(5-methyl-1,2,4-oxadiazol-3-yl)methyl]-1H-pyrazolo[4,3-d]pyrimidine-5,7-diamine], which EC50 is on record?
Answer: The EC50 was 117 nM.

Question: Which EC50 does the source give for `CCC[C@@H](CCO)Nc1nc(N)nc2cnn(Cc3ccc(C4CN(C(=O)CCN(C)C)CCN4)cc3OC)c12` (stereo partly drawn) [Compound 202, 1-(3-{4-[(5-amino-7-{[(3S)-1-hydroxyhexan-3-yl]amino}-1H-pyrazolo[4,3-d]pyrimidin-1-yl)methyl]-3-methoxyphenyl}piperazin-1-yl)-3-(dimethylamino)propan-1-one] here?
Answer: The EC50 was 496 nM.
